From PMC9851200, “Multiparameter phenotypic screening for endogenous TFEB and TFE3 translocation identifies novel chemical series modulating lysosome function” (Autophagy, 2022)
Read-outs that look alike come from different tables or passages of the source.

How the values were obtained:
[1] = system: SH-SY5Y cells; conditions: human, 24 h, 1 µM; also: reference of the scale not given here
[2] = system: endogenous TFEB; experiment: TFEB nuclear translocation, immunocytochemistry high-content imaging; format: cell-based
[3] = system: SH-SY5Y cells; experiment: Chemotype enrichment analysis of PKIS2 primary screen hit categories
[4] = system: SH-SY5Y cells; conditions: human, 24 h, 1 µM; remark: listed apart in the source; also: reference of the scale not given here
[5] = system: endogenous TFE3; experiment: TFE3 nuclear translocation, immunocytochemistry high-content imaging; format: cell-based
[6] = system: SH-SY5Y cells; also: reference of the scale not given here

Nuclear Count ([1]; SH-SY5Y cells)	AK ([4]; SH-SY5Y cells)	SMILES	TFEB % [2]	Outcome [3]	TFE3 % [5]	DQ Intensity [6]	DQ Spot [6]	Nuclear Count [1]	AK [4]
77.10	102.75	COc1ccc(C2=C(Nc3cccc(O)c3)C(=O)NC2=O)cc1 [UNC10225299A]	8.50%	DQ Only	15.17%	174.21	115.16	–	–
45.35	83.64	O=C(Nc1n[nH]c2nc(-c3ccccc3)c(Cl)cc12)C1CC1 [SB-734909]	6.63%	DQ Only	10.45%	123.78	126.24	–	–
103.32	87.38	O=C(Nc1n[nH]c2nc(-c3ccco3)c(Br)cc12)C1CCN(Cc2ccccc2)C1 (stereo not shown) [SB-742034]	3.21%	TFE3	21.82%	103.44	100.36	–	–
86.30	83.08	O=C1NC(=O)C(N2CCc3ccccc32)=C1c1ccccc1Cl [UNC10225255A]	3.84%	DQ Only	11.28%	155.35	121.27	–	–
107.31	105.72	O=C(Nc1n[nH]c2nc(-c3cccc(O)c3)ccc12)C1CC1 [SB-711805]	10.76%	TFE3	23.15%	78.27	112.05	–	–
105.81	104.06	COc1cccc(-c2ccc3c(NC(=O)C4CC4)n[nH]c3n2)c1 [SB-710903]	9.14%	–	8.53%	82.25	92.88	–	–
71.42	91.51	COc1cccc(C2=C(Nc3cccc(C(=O)O)c3)C(=O)NC2=O)c1 [UNC10225061A]	7.42%	TFE3	19.97%	83.20	110.64	–	–
74.04	82.09	Nc1n[nH]c2ncc(-c3ccccc3)cc12 [SB-517081]	4.88%	DQ Only	10.19%	121.05	122.46	–	–
132.24	100.20	O=C1NC(=O)C(N2CCc3ccccc32)=C1c1cccc(Cl)c1 [UNC10225137A]	4.79%	TFE3	20.87%	107.62	107.27	–	–
67.01	91.62	CCN1CCN(CCCC(=O)Nc2n[nH]c3nc(-c4ccc(O)cc4)c(Br)cc23)CC1 [SB-731579]	17.61%	–	6.82%	115.44	103.09	–	–
109.36	80.02	COc1ccc(C2=C(Nc3cccc(C(=O)O)c3)C(=O)NC2=O)cc1 [UNC10225244A]	15.51%	–	6.87%	74.93	82.38	–	–
119.42	136.91	COc1cccc(C2=C(Nc3cc(Cl)c(O)c(Cl)c3)C(=O)NC2=O)c1 [UNC10225267A]	6.51%	–	12.35%	123.38	111.15	–	–
69.78	99.42	Nc1n[nH]c2nnc(-c3ccccc3)cc12 [SB-517389]	5.21%	DQ Only	18.57%	136.15	127.72	–	–
103.55	133.76	O=C(Nc1n[nH]c2nc(-c3ccc(O)cc3)ccc12)C1CC1 [SB-710363]	15.49%	DQ Only	18.16%	87.11	130.75	–	–
106.99	108.76	Fc1ccc(-c2ncn(C3CCNCC3)c2-c2ccnc(Oc3ccc(-c4ccccc4)cc3)n2)cc1 [UNC10225377A]	13.41%	TFE3 + DQ Int	24.21%	170.99	76.67	–	–
127.54	67.50	O=C(Nc1n[nH]c2nc(-c3ccccc3)ccc12)C1CC1 [SB-708999]	6.34%	–	15.72%	102.03	111.17	–	–
59.85	230.70	CCCC(=O)Nc1n[nH]c2ncc(-c3cccc4ccccc34)cc12 [SB-642057]	5.52%	TOXIC	14.05%	126.93	107.10	–	–
125.04	112.72	O=C(Nc1n[nH]c2nc(-c3cccs3)c(Br)cc12)C1CC1 [SB-735297]	7.45%	–	10.45%	103.59	106.97	–	–
99.00	134.26	O=C1NC(=O)C(c2ccc(Cl)cc2)=C1Nc1ccc(O)cc1 [UNC10225090A]	11.08%	–	11.41%	92.30	94.51	–	–
102.12	88.20	O=C(Nc1n[nH]c2nc(-c3ccccc3O)ccc12)C1CC1 [SB-711880]	4.35%	–	12.20%	70.14	92.53	–	–
130.73	80.83	O=C(Nc1n[nH]c2nc(-c3nccs3)c(Br)cc12)C1CC1 [SB-742251]	12.43%	–	5.59%	109.29	109.81	–	–
155.73	104.34	CSc1ccc(NC2=C(c3ccc(Cl)cc3)C(=O)NC2=O)cc1 [UNC10225216A]	4.27%	–	17.03%	88.23	93.29	–	–
98.09	71.30	O=C(Nc1n[nH]c2cc(-c3cccs3)ccc12)C1CC1 [SB-731284]	12.38%	–	10.84%	119.55	107.15	–	–
105.86	157.36	CN(C1=C(c2ccccc2)C(=O)NC1=O)c1ccccc1 [UNC10225087A]	6.00%	TOXIC	7.91%	118.90	112.39	–	–
–	–	COc1ccccc1C1=C(Nc2cccc(O)c2)C(=O)NC1=O [UNC10225043A]	8.14%	–	13.36%	136.47	112.45	83.80	125.63
85.62	74.47	O=C1NC(=O)C(c2ccc(Cl)cc2)=C1Nc1cccc(Cl)c1 [UNC10225464A]	3.70%	–	10.27%	132.70	111.59	–	–
